This note sets out measurements from PubChem BioAssay AID1902 (Broad Institute, 2009).

Calls of active or inactive are those of the source.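 How the source made its calls: active means EC50 no more than a set limit of log units above the highest dose; inactive means the rest.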

The assay deals with S. pyogenes SKKanGAS, kanamycin survival, BacTiterGlo, 6 h. Nature of the assay: SKKanGAS survival reduction under kanamycin, dose response, streptokinase promoter inhibitor project, SKKanGAS strain, luminescence, dose confirmation (AID 1902).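 Further: lower survival reflects blocked streptokinase promoter driving kanamycin resistance gene.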

Regarding `O=C(CSc1nc(N2CCOCC2)nc(N2CCOCC2)n1)Nc1cccc(C(F)(F)F)c1`, the EC50 (in general, the concentration giving half of the maximal effect) is > 15000 nM (inactive).

For `CCCCCCCCCCCCn1ccc(=N)cc1`, the EC50 was 4100 nM.

Consider `Oc1ccc(/C=N/Nc2nc(N3CCCCCC3)nc(N3CCCCCC3)n2)c(O)c1`, for which the EC50 was 1730 nM.

Regarding `O=[N+]([O-])c1ccc(NCc2ccc(Cl)cc2)c2ccncc12`, the EC50 is 9290 nM.

Consider `O=C(Nc1nnc(C2CCCCC2)s1)c1ccc(Br)s1`, for which the EC50 is 3990 nM.

In the case of `COc1ccccc1/C=C/c1ccc2cccc(O)c2n1`, the EC50 was 1180 nM.

On to `Cc1noc(C)c1S(=O)(=O)N(CCc1ccccc1)Cc1ccccc1`, for which the EC50 was 5840 nM.

Turning to `O=c1c2ccccc2c(-c2ccccc2)nn1Cc1c(Cl)cccc1Cl`, the EC50 is 6080 nM.

For the compound `O=C(Nc1nnc(-c2ccc(Cl)cc2)o1)c1ccccc1Br`, the EC50 was 1590 nM.

Turning to `O[C@@H]1CCCN2CCc3c([nH]c4ccccc34)[C@H]12`, the EC50 was > 15000 nM (inactive).

As to `CC(OC(=O)Cc1n[nH]c(=O)c2ccccc12)C(=O)Nc1ccc(Cl)cn1` (stereo unspecified), the EC50 was 14700 nM.

Turning to `O=C(CCc1ccccc1)NNC(=S)NC(=O)c1ccc(Cl)cc1`, the EC50 was 203 nM.

As for `COc1ccc(S(=O)(=O)N2CCN=C2SCc2cccc(C)c2)cc1`, the EC50 was > 15000 nM (inactive).

For the compound `Cc1ccc(NC2=NCC(Cc3ccc(Br)cc3)S2)cc1` (stereo unspecified), the EC50 is 557 nM.

In the case of `CN(C(=S)NC(=O)c1ccccc1)C1CCCCC1`, the EC50 was > 15000 nM (inactive).

For `CCOC(=O)c1cccc(NC(=S)N2CCN(c3ncc4c(=O)c(C(=O)O)cn(CC)c4n3)CC2)c1`, the half-maximal effective concentration (EC50) was 6280 nM.

Regarding `CC1CCN(C(=O)c2ccc3c(c2)NC(=O)/C(=C/c2ccccc2)S3)CC1`, the EC50 is 2660 nM.

For the compound `CCOc1ccc(-c2nnc3ccc(SC(C)C)nn23)cc1`, the EC50 was 2150 nM.

On to `Cc1ccc(S(=O)(=O)NCC(=O)OCC(=O)N2N=C(c3ccc(Cl)cc3)CC2c2ccco2)cc1C` (stereo unspecified), for which the EC50 is 8170 nM.

As for `CC(C)c1ccc2c(c1)c(SC(C)(C)C)c(CC(C)(C)C(=O)O)n2Cc1ccc(Cl)cc1`, the EC50 was 875 nM.

In the case of `CC1(C)N=C(N)NC(Nc2ccccc2)=N1`, the EC50 is 3750 nM.

Take `CCCCn1c(NS(=O)(=O)c2ccccc2)c(S(=O)(=O)c2ccc(C)cc2)c2nc3ccccc3nc21`: the EC50 is 3430 nM.

Take `CCOC(=O)c1cnc(-n2nc(C)cc2C)nc1Nc1ccc(OC)cc1`: the EC50 was 185 nM.

With `CCOC(=O)N1CCN(C(=O)c2ccc3c(c2)NC(=O)/C(=C\c2ccc(OC)c(OC)c2)S3)CC1`, the EC50 is 1100 nM.

`COc1ccc(O)c(-c2cc(-c3cccc(Br)c3)n[nH]2)c1`: the EC50 is 9970 nM.

For the compound `O=Cc1cc(N=Nc2ccccc2Cl)ccc1O`, the EC50 is 2960 nM.

For the compound `O=C1N/C(=N\c2ccccn2)SC1Cc1ccc(Cl)cc1` (stereo unspecified), the EC50 was > 15000 nM (inactive).

Regarding `COc1ccccc1N1CCN(C(=O)/C=C/c2ccc(C)cc2)CC1`, the EC50 is > 15000 nM (inactive).

Consider `O=C(COc1ccc(-c2ccccc2)cc1)N/N=C/c1cc(O)ccc1Br`, for which the EC50 was 2270 nM.

For the compound `Cc1ccc(-n2cc3c(-c4cccc(Br)c4)nnc(C)c3n2)cc1`, the EC50 is 7090 nM.

Regarding `CS(=O)(=O)c1ccc2nc(NC(=O)c3ccc(NS(=O)(=O)c4ccc(F)c(F)c4)cc3)sc2c1`, the EC50 was 622 nM.

As to `O=C1c2ccccc2C2=Nc3ccccc3SC(c3ccccc3F)C12` (stereo unspecified), the EC50 is 3000 nM.

As to `Cc1ccc(C(=O)c2c(C)oc3c2C(=O)C(=O)c2ccccc2-3)cc1`, the EC50 was 801 nM.

On to `NC(=S)N/N=C/c1ccc(C23CC4CC(CC(C4)C2)C3)cc1`, for which the half-maximal effective concentration (EC50) is 3910 nM.

Turning to `COc1cccc(-c2nnc(NC(=O)c3ccc(S(=O)(=O)N4CC(C)OC(C)C4)cc3)o2)c1` (stereo unspecified), the EC50 is 1160 nM.

For the compound `O=C(c1cc(-c2cccs2)nc2ccccc12)N1CCN(c2ccccc2O)CC1`, the EC50 is 13400 nM.

With `Oc1cc(OCc2ccccc2)ccc1-c1[nH]ncc1-c1ccccc1`, the EC50 was 3060 nM.

As for `N#Cc1ccc(C(=O)Nc2nc(SCc3ccc(Cl)cc3)n[nH]2)cc1`, the EC50 is 1520 nM.

In the case of `Cc1cc(C)c(NC(=O)c2oc3ccccc3c2COc2ccccc2)c(C)c1`, the EC50 was 14800 nM.

Turning to `COc1cc(/C=N/NC(=O)c2cc(-c3c(C)nn(-c4ccccc4)c3C)n[nH]2)ccc1O`, the EC50 is 2970 nM.

For `Cc1n[nH]c(=O)c2c(NC(=O)CSc3nnnn3-c3ccccc3)oc(C)c12`, the EC50 was > 15000 nM (inactive).

On to `FC(F)(F)c1cccc(NC(=S)NNC(=S)Nc2ccc(Cl)cc2)c1`, for which the EC50 was 4810 nM.

Turning to `Cc1[nH]n(-c2ccccc2)c(=O)c1/C=N/NC(=O)c1ccccc1F`, the EC50 is 1120 nM.

In the case of `CCc1oc2ccccc2c1C(=O)c1cc(Br)c(O)c(Br)c1`, the EC50 is 6550 nM.

For the compound `Cn1c(O)c(N=NC(=O)c2cc(-c3cccs3)nc3ccccc23)c2ccccc21`, the EC50 is 2570 nM.

As for `CCOc1ccc(Nc2cc(C)nc(-n3nc(C)cc3C)n2)cc1`, the concentration for a half-maximal effect (EC50) was 14000 nM.

Take `Cc1ccc(OCC(=O)Nc2nc(-c3ccccn3)cs2)c(C)c1`: the EC50 was 1990 nM.

As to `O=C(Nc1ccccc1Cl)/C(Cl)=C(\Cl)S(=O)c1ccccc1` (stereo unspecified), the EC50 was 1980 nM.

In the case of `Oc1cccc(/C=N/N(Cc2ccccc2)c2ccccc2)c1`, the EC50 was 6020 nM.

As for `CCc1noc(C)c1C(=O)OCC(=O)NC(=O)c1ccccc1`, the EC50 was > 15000 nM (inactive).

As for `Nc1c(S(=O)(=O)c2cccs2)c2nc3ccccc3nc2n1/N=C/c1cccc(O)c1`, the EC50 was 4520 nM.

On to `CC(C)c1ccc(OCC(=O)NNC(=S)NC(=O)c2ccco2)c(Br)c1`, for which the EC50 is less than 60 nM.

Regarding `CCCOC(=O)c1ccc(Oc2c(-c3ccc(OCC)cc3O)n[nH]c2C)cc1`, the EC50 is 2020 nM.

On to `COc1ccc2nc(N3C(=O)CNC3=S)sc2c1`, for which the half-maximal effective concentration (EC50) was 2890 nM.

In the case of `CC(Oc1ccc(Cl)cc1Cl)C(=O)Nc1ccc(S(=O)(=O)Nc2cnc3ccccc3n2)cc1` (stereo unspecified), the EC50 is 3880 nM.

In the case of `C=CC1=C(C(=O)O)N2C(=O)[C@@H](NC(=O)/C(=N/OCC(=O)O)c3csc(N)n3)[C@H]2SC1`, the EC50 is less than 60 nM.

With `C/C(=N\Nc1ccc(Cl)c(Cl)c1)c1ccc(-n2ccnc2)cc1`, the EC50 was 1860 nM.

As for `Cc1onc(-c2ccccc2)c1C(=O)NNC(=S)NC(=O)c1ccc2c(c1)OCO2`, the 50% effective concentration (EC50) was 589 nM.

`Cc1ccc(NC(=O)C(OC(=O)c2ccc(NC(N)=O)cc2)c2ccccc2)cc1Cl` (stereo unspecified): the EC50 was 6520 nM.

Regarding `CCCn1nnnc1NC(=O)c1ccc2ccccc2c1`, the EC50 is 1010 nM.

Regarding `COc1ccc(/C=C2/S/C(=N/N=C3\CC4CCC3(C)C4(C)C)NC2=O)cc1` (stereo unspecified), the concentration for a half-maximal effect (EC50) is 10700 nM.

As to `NNc1nc(-c2ccccc2)c2cc(Br)ccc2n1`, the EC50 is 9120 nM.

On to `N#C/C(=N\Nc1ccc(S(=O)(=O)N2CCOCC2)cc1)C(N)=S`, for which the EC50 was > 15000 nM (inactive).

Regarding `COc1ccc(CCN2CC(C(=O)NCCc3ccccn3)CCC2=O)cc1` (stereo unspecified), the EC50 was > 15000 nM (inactive).

`O=c1c2cc(Br)ccc2nc(-c2ccc(Cl)cc2)n1O`: the EC50 was 1070 nM.

As to `O=C(COc1ccccc1)NNC(=S)NC(=O)c1ccc(Cl)cc1Cl`, the EC50 is 361 nM.

Consider `COc1cnc(-c2ccccn2)nc1Oc1ccccc1`, for which the EC50 was 2030 nM.

As to `O=C(NCc1ccc(F)cc1)C(=O)Nc1nc(C23CC4CC(CC(C4)C2)C3)cs1`, the EC50 is 637 nM.

For the compound `Cc1cc(Nc2ccccc2)nn1C(=O)c1ccc(Br)cc1`, the EC50 was 14600 nM.

On to `O=C(Oc1cccc(/C=N/Nc2nc(Nc3ccccc3)nc(N3CCOCC3)n2)c1)c1ccco1`, for which the half-maximal effective concentration (EC50) is 2030 nM.

Turning to `COc1ccc(-c2cn[nH]c2-c2ccc(OC)cc2)cc1`, the EC50 is 6640 nM.

Consider `Cc1ccc(C(=O)NC(=S)NNC(=O)COc2ccccc2C)cc1`, for which the EC50 was 161 nM.

For `c1ccc2sc(SCSc3nc4ccccc4s3)nc2c1`, the EC50 is 2860 nM.

`Cc1ccc(-c2nn(CCC(=O)O)cc2/C=C\C(=O)c2ccc(Br)cc2)cc1`: the concentration giving a half-maximal response (EC50) was 6540 nM.

In the case of `CCCCCC(=O)NC(=S)NC1C2CC3CC(C2)CC1C3` (stereo unspecified), the EC50 was 3830 nM.

On to `C=CCNC(=S)N/N=C(\C)c1ccccn1`, for which the EC50 was 1760 nM.

As to `Cc1cccc(OCC(=O)NCC(=O)N/N=C/c2cc(Br)cc(Br)c2O)c1`, the EC50 is 723 nM.

In the case of `COc1ccccc1C(=O)NNC(=S)NC(=O)c1ccco1`, the EC50 was 383 nM.

As to `c1ccc(CNc2nc(-c3ccccn3)nc3ccccc23)cc1`, the EC50 is 418 nM.

Turning to `O=C(O)CN1C(=O)/C(=C\c2ccccc2OCc2ccc(Cl)cc2Cl)SC1=S`, the EC50 is 2730 nM.

`COc1cccc(/C=N/NC(=O)c2c(C)nc3ccc(Cl)cn23)c1O`: the EC50 was 5630 nM.

As to `Cc1onc(-c2c(Cl)cccc2Cl)c1C(=O)NC1C(=O)N2C1SC(C)(C)C2C(=O)O` (stereo unspecified), the EC50 was less than 60 nM.

Take `Cc1onc(-c2ccccc2)c1C(=O)NC(=S)NNC(=O)c1ccc(O)cc1`: the EC50 was 568 nM.

For the compound `Clc1ccc2nc(-c3ccccn3)c(Nc3ccc4c(c3)OCO4)n2c1`, the EC50 was 6990 nM.

On to `Cc1ccc(/C=C/C(=O)NC(=S)Nc2ccc(S(=O)(=O)Nc3cc(C)on3)cc2)cc1`, for which the EC50 is 9270 nM.

As for `COc1ccc(-c2oc3cccnc3c2C#CC2(O)CCCCC2)cc1`, the concentration for a half-maximal effect (EC50) was 7360 nM.

With `COc1cc(OC)cc(C(=O)NC(=S)N2CCN(c3ccc(C(F)(F)F)cc3[N+](=O)[O-])CC2)c1`, the EC50 was 1280 nM.

As for `CCC1CCCCN1c1cc(C)nc2cc(-c3cccc(C)c3)nn12` (stereo unspecified), the concentration for a half-maximal effect (EC50) was 6590 nM.

With `CN(C)CCCn1c(SCC(=O)Nc2nc(-c3cccc(Br)c3)cs2)nc2ccccc2c1=O`, the EC50 was 4730 nM.

On to `CCCCCCCn1c(NC(=O)CC)nc2ccccc21`, for which the concentration for a half-maximal effect (EC50) is 342 nM.

As to `Cc1cc(C)c2ccc(NN)nc2c1O`, the EC50 is 6080 nM.
